Data set [1] is described as follows: Foaming property of fidaxomicin suspensions in water (tube shaken, foaming checked). The format is physicochemical. The note with it: 400 mg fidaxomicin in 10 mL distilled water; immediately after preparation and 1 hour after preparation. The protocol: To 400 mg of fidaxomicin was added 10 mL of distilled water in a tube. The mixture was shaken and allowed to stand.
Hydroxypropylcellulose (HPC-L (middle viscosity grade) and HPC-SSL (low viscosity grade) respectively), in a concentration of 0.3 and 0.6 w/v % respectively, was added to 5 mL of distilled water in a tube which contained 0 and 200 mg respectively of fidaxomicin. Each mixture was shaken and allowed to stand.
Xanthan gum in a concentration of 0.2% w/v was added to 5 mL of distilled water in a tube, which contained 0 and 200 mg respectively of fidaxomicin. Each mixture was shaken and allowed to stand.
An amount of the granulate corresponding to 200 mg fidaxomicin was weighed into a tube and 5 ml, of water was added. The tube was vigorously shaken for about 1 min. Foaming of the suspension was not observed.
An amount of each of the granulates OS-5-OS-9, corresponding to 200 mg fidaxomicin, was weighed into a tube and 5 mL of water was added. Further, suspensions OS-10 and OS-11 were prepared by addition of 2.5 mg and 5.0 mg respectively of xanthan gum to a suspension with composition OS-5. Each tube was vigorously shaken for about 1 min. In none of the suspensions foaming was observed.
Each of the granulate compositions OS-1, OS-2 and OS-3 was weighed into a tube, water was added and the tubes were vigorously shaken for about 1 minute. […]

Data set [2] is described as follows: Storage stability of fidaxomicin with a sugar in a ratio of 1:9. In kind it is physicochemical. Particulars: glass bottle. The protocol: Fidaxomicin and a sugar, selected from the group consisting of D-mannitol, erythritol, isomalt and trehalose, in a ratio of 1:9, were transferred into a glass bottle and stored at 5° C. during 10 days, 70° C. during 9 days and 40° C./75% RH during 1 month, respectively. In the presence of each sugar the degradation of fidaxomicin increased when stored at 70° C. during 9 days. […] (see Table 7).

For data set [3] the following is noted: low solubility, low permeability; cited from earlier work.
For data set [4] the following is noted: oral administration; cited from earlier work.

As to `CCc1c(Cl)c(O)c(Cl)c(O)c1C(=O)O[C@H]1[C@H](O)[C@H](OC)[C@H](OC/C2=C\C=C\C[C@H](O)/C(C)=C/[C@H](CC)[C@@H](O[C@@H]3OC(C)(C)[C@@H](OC(=O)C(C)C)[C@H](O)[C@@H]3O)/C(C)=C/C(C)=C/C[C@@H]([C@@H](C)O)OC2=O)O[C@@H]1C` [fidaxomicin, 3-[[[6-deoxy-4-O-(3,5-dichloro-2-ethyl-4,6-dihydroxybenzoyl)-2-O-methyl-β-D-mannopyranosyl]oxy]methyl]-12(R)-[[6-deoxy-5-C-methyl-4-O-(2-methyl-1-oxopropyl)-β-D-lyxo-hexopyranosyl]oxy]-11(S)-ethyl-8(S)-hydroxy-18(S)-(1(R)-hydroxyethyl)-9,13,15-trimethyloxacyclooctadeca-3,5,9,13,15-pentaen-2-one], the “foaming property on contact with water” value in data set [1] is recorded as “intrinsically foaming property”. Further, the “Total related substances (%)” value is given as 1.91% in data set [2] (5° C./10 days) and 5.10% in data set [2] (70° C./9 days). Further, the BCS class result in data set [3] is on record as “BCS Class IV”. Moreover, the “absorption from the intestinal tract” value in data set [4] is given as “poorly absorbed”.

Values taken from patent publication US9808530B2, “Composition of tiacumicin compounds” (Astellas Pharma Europe Ltd., priority 2013, dated 2017).
